Experiments:
Assay type in all cases: physicochemical
[1] = Single crystal X-ray diffraction (calculated density); conditions: from single crystal X-ray data collected at −100° C.
Description: Suitable single crystals for polymorph Form A were grown from methanol evaporation. A colorless irregular plate with approximate dimensions of 0.520×0.300×0.060 mm was chosen for data collection and mounted on a polymer loop. Single crystal data was collected using a Bruker Platform goniometer with an Apex-II detector. The diffractometer was equipped with an incident beam monochromator using Mo-Kα radiation (λ=0.71073 Å) and a monocap collimator. The crystals were cooled in a −100° C. nitrogen flow during data collection.
The data were indexed and integrated using the Apex-II suite of programs including Sainplus and SADABS. The monoclinic cell parameters were determined to be: a=7.870(5) Å, b=28.037(16) Å, c=7.976(5) Å, beta=103.875(10) °, volume=1708.6(17) Å^3. The space group was determined to be P21/n. The molecular weight was 412.66 g/mol giving a calculated density of 1.604 g/cm^3, and μ(Mo)=2.59 mm^−1 for Z=4. Data reduction led to 3487 unique data from a two-theta range=5.46 to 52.92°. […]
The data were indexed and integrated using the Apex-II suite of programs including Sainplus and SADABS. The orthorhombic cell parameters were determined to be: a=14.285(3) Å, b=11.464(2) Å, c=20.010(3) Å, volume=3276.9(10) Å^3. The space group was determined to be Pbca. The molecular weight was 412.66 g/mol giving a calculated density of 1.673 g/cm^3, and μ(Mo)=2.70 mm^−1 for Z=8. […]

[2] = Differential Scanning Calorimetry; conditions: DSC, heated at 2° C./min
Description: Differential Scanning Calorimetry was used to study the crystalline phases of various samples of Compound 1. Data were obtained with a TA Instruments Q20-1220 Differential Scanning Calorimeter (V24.2 Build 107) using a standard cell (FC-03859). Samples were prepared by weighing between 4 and 5 mg of Compound 1 in a gold plated pan (Fauske and Associates, LLC, Burr Ridge, Ill.; part number DSC-M20). The corresponding lid was crimped tightly to the pan and the assembled crucible was inserted into the calorimeter. An empty crucible of the same type was prepared the same way and inserted as the reference. After the instrument was initialized, the sample was first equilibrated at 25° C. and then heated at 2° C./min to a maximum temperature of 225° C.

[3] = Temperature-dependent X-ray powder diffraction (stability with respect to temperature); conditions: heated from 25° C. at 10° C. per minute; pXRD
Description: To assess the stability of polymorph Form B of Compound 1 with respect to temperature, X-ray powder diffraction patterns were obtained while heating a sample of Form B from 25° C. to above its melting point. The measurement was conducted at the 5-IDD beam line at the Advanced Photon Source synchrotron located at the Argonne National Laboratory (Argonne, Ill., USA). A Differential-Scanning Calorimeter (DSC, Model DSC600, Linkam Scientific Instruments, Tadworth, U.K.) was mounted in vertical orientation to allow insertion of the DSC into the X-ray beam. The DSC was positioned in the beam line to accept a 100-200 μm square beam under high vacuum. The standard quartz window was replaced with polyimide film (Kapton®, 8 μm thickness, DuPont, Wilmington, Del., USA). An internal thermocouple was installed for temperature recording. A circular charged couple device (CCD) detector (Model Mar165, 165 mm diameter, Marresearch GmbH, Norderstedt, Germany) was used to detect the X-rays scattered from the sample. The detector was equipped with an aluminum cone that covered the detector and extended 100 mm from the face of the detector. This cone was equipped with a beam stop support and 5×3 mm lead beam stop. The cone was continuously purged with helium to minimize air scattering. […]

calculated density [1] | broad endotherm signal maximum (transition of Form B to Form A) [2] | heat of transition ([2]; Form B to Form A) | temperature until which the form persists before it converts to polymorph Form A [3] | Structure (SMILES)
1.604 g/mL |  |  |  | Cc1nn(C)c(Nc2c(F)cccc2Cl)c1-c1ccc(F)cc1Br [polymorph Form A, 4-(2-bromo-4-fluorophenyl)-N-(2-chloro-6-fluorophenyl)-1,3-dimethyl-1H-pyrazol-5-amine]
1.673 g/mL | about 148 °C | 12 J/g | 138 °C | Cc1nn(C)c(Nc2c(F)cccc2Cl)c1-c1ccc(F)cc1Br [polymorph Form B, 4-(2-bromo-4-fluorophenyl)-N-(2-chloro-6-fluorophenyl)-1,3-dimethyl-1H-pyrazol-5-amine]
